Reference: patent publication US10899699B2, “Vinylogous phenethylamines as neurotransmitter releasers” (RESEARCH TRIANGLE INSTITUTE, priority 2016, dated 2021)
Where a name gives a salt, the structure may show the parent alone. Read-outs that look alike come from different tables or passages of the source.

Columns and labels:
[1] = target: T1, 5-HT2B (Homo sapiens, UniProt P41595); experiment: 5-HT2B calcium mobilization assay in HEK293 cells (agonist activity); type: cell-based; conditions: calcium mobilization, agonist, HEK293; for EC50: read-out: 5-HT2B EC50, (nM ± SEM)
T1 construct: expressed in transfected cells
T1 sequence (P41595 whole entry): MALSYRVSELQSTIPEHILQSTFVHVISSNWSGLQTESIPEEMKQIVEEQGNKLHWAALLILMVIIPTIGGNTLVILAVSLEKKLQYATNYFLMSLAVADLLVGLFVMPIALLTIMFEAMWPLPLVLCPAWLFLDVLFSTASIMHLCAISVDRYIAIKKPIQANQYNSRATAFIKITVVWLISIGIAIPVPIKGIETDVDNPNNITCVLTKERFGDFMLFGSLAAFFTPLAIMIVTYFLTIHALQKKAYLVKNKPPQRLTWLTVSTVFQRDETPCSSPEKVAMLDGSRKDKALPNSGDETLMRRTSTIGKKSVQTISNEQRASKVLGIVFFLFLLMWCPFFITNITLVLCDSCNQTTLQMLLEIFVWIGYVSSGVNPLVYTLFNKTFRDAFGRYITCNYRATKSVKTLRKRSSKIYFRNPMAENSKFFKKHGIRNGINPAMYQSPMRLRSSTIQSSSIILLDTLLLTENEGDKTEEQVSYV
Protocol: (§1) BAT activity was measured using synaptosomes prepared from rat brain homogenates according to the protocol developed by Rothman and co-workers (Rothman, et al., Eur. J. Pharmacol. 2002, 447(1), 51). Compounds were first screened in uptake inhibition and release assays to determine the exact mode of drug action. Compounds active in both assays are releasers while compounds active only in the uptake inhibition assay are uptake inhibitors. Active compounds were then fully characterized by running 8-point concentration response curves in the assay corresponding to their mechanism of action. Substrate reversal experiments were conducted to validate substrate activity. The analogs were also tested for agonist activity at the serotonin-2 receptor subtypes (5-HT2A, 5-HT2B, 5-HT2C) using in vitro calcium mobilization assays in transfected HEK293 cells as previously described. These receptors are associated with the pharmacology of abused drugs, as 5-HT2A agonists are thought to be hallucinogenic while […] are associated with valvular heart disease and pulmonary hypertension; activity at these receptors would be considered off-target liabilities. On the other hand, agonists at 5-HT2C may be beneficial as potential pharmacotherapies for drug abuse and appetite suppression.
(§2) HEK293 cells stably expressing the human 5-HT2A receptor were used. The day before the assay, cells were plated into 96-well black-walled assay plates at 40,000 cells/well in DMEM-HG supplemented with 10% fetal bovine serum, 100 units of penicillin and streptomycin, and 15 mM HEPES. The cells were incubated overnight at 37° C., 5% CO2. Prior to the assay, Calcium 5 dye (Molecular Devices) was reconstituted according to the manufacturer instructions. The reconstituted dye was diluted 1:40 in pre-warmed (37° C.) assay buffer (1×HBSS, 20 mM HEPES, 2.5 mM probenecid, pH 7.4 at 37° C.). Growth medium was removed and the cells were gently washed with 100 μL of pre-warmed (37° C.) assay buffer. The cells were incubated for 45 minutes at 37° C., 5% CO2 in 200 μL of the diluted Calcium 5 dye. Serial dilutions of the test compounds were prepared in 1% DMSO/assay buffer, aliquoted into 96-well polypropylene plates, and warmed to 37° C. After the dye-loading incubation period, the cells were pre-treated with 25 μL of 9% DMSO/assay buffer and incubated for 15 min at 37° C. After the pre-treatment incubation period, the plate was read with a FlexStation® II (Molecular Devices). Calcium-mediated changes in fluorescence were monitored every 1.52 seconds over a 60 second time period, with the FlexStation® II adding 25 μL of test compound dilutions at the 19 second time point (excitation at 485 nm, detection at 525 nm). Peak kinetic reduction (SoftMax, Molecular Devices) relative fluorescent units (RFU) were plotted against compound concentration. Data were fit to the appropriate three-parameter logistic curve to generate EC50 values (GraphPad Prism 6.0, GraphPad Software, Inc., San Diego, Calif.). 5-HT2B and 5-HT2C calcium mobilization assays were run in the same manner with stable 5-HT2B and 5-HT2C HEK293 cells except that 35,000 cells/well were used instead of 40,000 cells/well.

[2] = target: T2, Dopamine Transporter (DAT) (Rattus norvegicus, UniProt P23977); experiment: DAT release assay, rat brain synaptosomes; type: biochemical; conditions: for EC50: release of [3H]MPP+ from rat striatum synaptosomes, mean±SD (n=3)
T2 construct: Synaptosomes were prepared from rat striatum for the DAT assays; from tissue; host or cells: rat striatum synaptosomes
T2 sequence (P23977 whole entry): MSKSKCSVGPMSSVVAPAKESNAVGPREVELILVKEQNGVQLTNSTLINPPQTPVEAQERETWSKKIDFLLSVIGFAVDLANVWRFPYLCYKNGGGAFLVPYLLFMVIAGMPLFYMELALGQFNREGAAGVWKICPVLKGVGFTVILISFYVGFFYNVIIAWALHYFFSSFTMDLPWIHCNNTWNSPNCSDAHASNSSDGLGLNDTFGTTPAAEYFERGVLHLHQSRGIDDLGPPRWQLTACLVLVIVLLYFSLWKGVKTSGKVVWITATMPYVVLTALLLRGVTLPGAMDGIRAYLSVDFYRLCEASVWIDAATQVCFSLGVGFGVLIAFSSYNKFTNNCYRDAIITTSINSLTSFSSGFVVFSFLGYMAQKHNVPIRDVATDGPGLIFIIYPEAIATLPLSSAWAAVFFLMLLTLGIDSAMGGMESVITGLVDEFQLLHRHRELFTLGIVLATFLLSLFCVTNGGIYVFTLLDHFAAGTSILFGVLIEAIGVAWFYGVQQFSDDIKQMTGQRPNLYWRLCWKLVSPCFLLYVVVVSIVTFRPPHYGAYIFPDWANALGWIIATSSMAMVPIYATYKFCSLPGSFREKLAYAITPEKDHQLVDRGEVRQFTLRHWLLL
Protocol: as §1, with “Compounds active in both assays are releasers while compounds active only in the uptake inhibition assay are uptake inhibitors. Active compounds were then fully characterized by running 8-point concentration response curves in the assay corresponding to their mechanism of action.” left out
(§3) All animal studies were conducted in facilities fully accredited by the Association for the Assessment and Accreditation of Laboratory Animal Care (AAALAC) and experiments were performed in accordance with the Institutional Care and Use Committee (IACUC) of the National Institute on Drug Abuse Intramural Research Program (NIDA IRP). Rats were euthanized by CO2 narcosis, and brains were processed to yield synaptosomes as previously described (Rothman, R B, et al., Eur. J. Pharmacol. 2002, 447(1), 51.). Synaptosomes were prepared from rat striatum for the DAT assays, whereas synaptosomes were prepared from whole brain minus striatum and cerebellum for the NET and SERT assays.
(§4) For release assays, 9 nM [^3H]1-methyl-4-phenylpyridinium ([^3H]MPP+) was used as the radiolabeled substrate for DAT and NET, while 5 nM [^3H]5-HT was used as a substrate for SERT. All buffers used in the release assay methods contained 1 μM reserpine to block vesicular uptake of substrates. The selectivity of release assays was optimized for a single transporter by including unlabeled blockers to prevent the uptake of [^3H]MPP+ or [^3H]5-HT by competing transporters. Synaptosomes were preloaded with radiolabeled substrate in Krebs-phosphate buffer for 1 h (steady state). Release assays were initiated by adding 850 μL of preloaded synaptosomes to 150 μL of test drug. Release was terminated by vacuum filtration and retained radioactivity was quantified as described for uptake inhibition. Concentration-response curves were generated to yield EC50 values.
(§5) Substrate reversal experiments were conducted to validate substrate activity. The releasing ability of test compounds was tested at an EC80 concentration in the absence and presence of an uptake inhibitor (250 nM […] for DAT, 166 nM desipramine for NET, 100 nM fluoxetine for SERT).

[3] = target: T3, Serotonin Transporter (SERT) (Rattus norvegicus, UniProt P31652); experiment: SERT release assay, rat brain synaptosomes; type: biochemical; conditions: for EC50: release of [3H]5-HT from rat brain synaptosomes, mean±SD (n=3)
T3 construct: synaptosomes were prepared from whole brain minus striatum and cerebellum for the NET and SERT assays; from tissue; host or cells: rat whole brain minus striatum and cerebellum, synaptosomes
T3 sequence (P31652 whole entry): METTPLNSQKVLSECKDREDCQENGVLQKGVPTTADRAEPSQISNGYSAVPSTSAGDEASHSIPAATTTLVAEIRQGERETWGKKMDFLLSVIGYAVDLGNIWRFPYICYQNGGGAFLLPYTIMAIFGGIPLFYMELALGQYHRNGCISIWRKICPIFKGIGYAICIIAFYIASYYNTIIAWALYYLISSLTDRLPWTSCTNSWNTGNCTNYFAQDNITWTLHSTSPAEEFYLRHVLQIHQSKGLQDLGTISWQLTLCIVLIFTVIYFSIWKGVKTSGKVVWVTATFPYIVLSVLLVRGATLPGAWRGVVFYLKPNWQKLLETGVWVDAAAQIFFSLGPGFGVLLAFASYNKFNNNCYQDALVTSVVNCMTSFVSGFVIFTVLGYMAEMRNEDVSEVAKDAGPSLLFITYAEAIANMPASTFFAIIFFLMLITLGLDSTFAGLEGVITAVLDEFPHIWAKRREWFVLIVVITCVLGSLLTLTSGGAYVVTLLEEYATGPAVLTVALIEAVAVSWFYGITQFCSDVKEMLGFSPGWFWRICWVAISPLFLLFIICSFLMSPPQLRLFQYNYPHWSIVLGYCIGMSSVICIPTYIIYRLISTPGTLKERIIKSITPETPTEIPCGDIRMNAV
Protocol: as §1, with “Compounds active in both assays are releasers while compounds active only in the uptake inhibition assay are uptake inhibitors. Active compounds were then fully characterized by running 8-point concentration response curves in the assay corresponding to their mechanism of action.” left out
as §3, §4, §5

[4] = target: T4, human 5-HT2A receptor (Homo sapiens, UniProt P28223); experiment: 5-HT2A calcium mobilization assay in HEK293 cells (agonist activity); type: cell-based; conditions: for Emax: efficacy
T4 construct: expressed in transfected cells
T4 sequence (P28223 whole entry): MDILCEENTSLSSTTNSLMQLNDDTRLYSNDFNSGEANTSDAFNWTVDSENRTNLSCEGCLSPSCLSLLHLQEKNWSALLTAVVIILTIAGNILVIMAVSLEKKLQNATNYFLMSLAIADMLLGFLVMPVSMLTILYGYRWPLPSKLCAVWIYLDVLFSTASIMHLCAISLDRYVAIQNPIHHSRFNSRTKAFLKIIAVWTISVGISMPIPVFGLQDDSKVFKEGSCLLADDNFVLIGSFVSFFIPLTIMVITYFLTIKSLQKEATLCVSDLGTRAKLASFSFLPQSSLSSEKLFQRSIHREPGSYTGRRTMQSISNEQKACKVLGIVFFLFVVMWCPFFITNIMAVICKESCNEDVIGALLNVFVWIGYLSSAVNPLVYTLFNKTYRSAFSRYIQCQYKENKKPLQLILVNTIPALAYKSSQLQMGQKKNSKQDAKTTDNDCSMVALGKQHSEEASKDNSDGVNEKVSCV
Protocol: as §1, §2

[5] = target: Norepinephrine Transporter (NET) (Rattus norvegicus, UniProt Q9WTR4); type: biochemical; conditions: read-out: EC50, (nM ± SD) NET; release of [3H]MPP+ from rat brain synaptosomes; mean±SD (n=3)
[6] = target: T5, 5-HT2C (Homo sapiens, UniProt P28335); experiment: 5-HT2C calcium mobilization assay in HEK293 cells (agonist activity); type: cell-based; conditions: HEK293; for EC50: read-out: 5-HT2C EC50, (nM ± SEM)
T5 construct: expressed in transfected cells
T5 sequence (P28335 33-458): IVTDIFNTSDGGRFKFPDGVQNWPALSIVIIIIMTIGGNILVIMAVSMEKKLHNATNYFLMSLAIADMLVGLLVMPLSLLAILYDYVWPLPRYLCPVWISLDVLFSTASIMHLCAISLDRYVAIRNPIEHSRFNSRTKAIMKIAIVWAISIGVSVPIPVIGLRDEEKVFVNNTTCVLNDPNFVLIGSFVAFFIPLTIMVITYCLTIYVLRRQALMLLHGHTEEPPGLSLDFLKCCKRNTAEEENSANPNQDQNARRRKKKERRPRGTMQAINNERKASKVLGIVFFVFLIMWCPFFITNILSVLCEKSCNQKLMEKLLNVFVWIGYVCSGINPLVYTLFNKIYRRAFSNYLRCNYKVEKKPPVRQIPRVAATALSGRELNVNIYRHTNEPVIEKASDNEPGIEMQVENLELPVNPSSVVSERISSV
Protocol: as §1, §2

[7] = calcium mobilization, agonist, HEK293, read-out: 5-HT2A EC50, (nM ± SEM)

C[C@@H](N)CC#Cc1ccccc1 (as salt: hydrochloride) [R-4, (1R)-1-Methyl-4-phenyl-but-3-ynylamine]
melting point: 143 to 144 °C

C[C@@H](N)C/C=C/c1ccccc1 (as salt: hydrochloride) [R-6, (1R,3E)-1-Methyl-4-phenyl-but-3-enylamine]
melting point: 172 to 174 °C

C[C@@H](N)C/C=C\c1ccccc1 (as salt: hydrochloride) [R-8, (1R,3Z)-1-Methyl-4-phenyl-but-3-enylamine]
melting point: 83 to 84 °C

C[C@H](N)CC#Cc1ccccc1 (as salt: hydrochloride) [S-4, (1S)-1-Methyl-4-phenyl-but-3-ynylamine]
melting point: 141 to 142 °C

C[C@H](N)C/C=C/c1ccccc1 (as salt: hydrochloride) [S-6, (1S,3E)-1-Methyl-4-phenyl-but-3-enylamine]
melting point: 172 to 173 °C

C[C@H](N)C/C=C\c1ccccc1 (as salt: hydrochloride) [S-8, (1S,3Z)-1-Methyl-4-phenyl-but-3-enylamine]
melting point: 83 to 84 °C

CC(N)/C=C/c1ccccc1 (stereo not drawn) (as salt: hydrochloride) [compound 10, (2E)-1-Methyl-3-phenyl-prop-2-enylamine]
melting point: 151 to 152 °C

CC(N)/C=C\c1ccccc1 (stereo not drawn) (as salt: hydrochloride) [compound 11, (2Z)-1-Methyl-3-phenyl-prop-2-enylamine]
melting point: 149 to 151 °C

CC(N)CC#Cc1ccccc1 (racemic) (as salt: hydrochloride) [compound 4, 1-Methyl-4-phenyl-but-3-ynylamine]
melting point: 131 to 132 °C

CC(N)C/C=C/c1ccccc1 (racemic) (as salt: hydrochloride) [compound 6, (3E)-1-Methyl-4-phenyl-but-3-enylamine]
melting point: 147 to 148 °C

CC(N)C/C=C\c1ccccc1 (racemic) (as salt: hydrochloride) [compound 8, (3Z)-1-Methyl-4-phenyl-but-3-enylamine]
melting point: 115 to 117 °C

CC(N)CC#Cc1ccccc1 (racemic) [compound 4, 1-Methyl-4-phenyl-but-3-ynylamine]
EC50 [1]: > 10000 nM
potency at releasing DA compared to NE [2]: 3 fold
selectivity for releasing 5-HT compared to DA, given as fold more potent at the DAT [2]: 2.6 fold
EC50 [2]: 997 nM
EC50 [3]: 384 ± 110 nM
EC50 [4, 7]: > 10000 nM
EC50 ([4]; calcium mobilization, read-out: 5-HT2A EC50): > 10000 nM
EC50 [5]: 2980 nM
EC50 ([6]; calcium mobilization, agonist): > 10000 nM

CC(N)C/C=C/c1ccccc1 (racemic) [compound 6, (3E)-1-Methyl-4-phenyl-but-3-enylamine]
EC50 [1]: > 10000 nM
EC50 [2]: 272 ± 44 nM
EC50 [3]: 54 ± 8 nM
fold reduction in potency at 5-HT2A compared to 8 [4]: 3 fold
Emax ([4]; HEK293, calcium mobilization): ~80%
EC50 [4, 7]: 5620 ± 1700 nM
EC50 [5]: 239 ± 59 nM
EC50 ([6]; calcium mobilization, agonist): > 10000 nM

CC(N)C/C=C\c1ccccc1 (racemic) [compound 8, (3Z)-1-Methyl-4-phenyl-but-3-enylamine]
EC50 [1]: > 10000 nM
EC50 [2]: 900 ± 100 nM
potency for releasing 5-HT relative to DA (SERT/DAT selectivity) [3]: 1.4 fold
EC50 [3]: 646 nM
Emax ([4]; HEK293, calcium mobilization): 90%
EC50 [4, 7]: 1860 nM
EC50 [5]: 621 ± 190 nM
Emax at 10 µM ([6]; at 10 μM, read-out: 5-HT2C activity relative to the control 5-HT EMAX): < 50%
EC50 ([6]; calcium mobilization, agonist): > 10000 nM

C[C@@H](N)CC#Cc1ccccc1 [R-4, (1R)-1-Methyl-4-phenyl-but-3-ynylamine]
EC50 [1]: > 10000 nM
selectivity for releasing 5-HT compared to DA, given as fold more potent at the DAT [2]: 2.3 fold
EC50 [2]: 660 ± 190 nM
EC50 [3]: 288 nM
EC50 [5]: 496 nM
EC50 ([6]; calcium mobilization, agonist): > 10000 nM

C[C@@H](N)C/C=C/c1ccccc1 [R-6, (1R,3E)-1-Methyl-4-phenyl-but-3-enylamine]
EC50 [1]: > 10000 nM
EC50 [2]: 540 nM
EC50 [3]: 109 ± 29 nM
EC50 [5]: 279 ± 24 nM
EC50 ([6]; calcium mobilization, agonist): > 10000 nM

C[C@H](N)CC#Cc1ccccc1 [S-4, (1S)-1-Methyl-4-phenyl-but-3-ynylamine]
EC50 [1]: > 10000 nM
EC50 [2]: 443 nM
potency for releasing 5-HT relative to DA (SERT/DAT selectivity) [3]: essentially equipotent
EC50 [3]: 756 ± 79 nM
fold reduction in potency at 5-HT2A compared to 8 [4]: 2.7 fold
Emax ([4]; HEK293, calcium mobilization): ~80%
EC50 [4, 7]: 4950 ± 1400 nM
EC50 [5]: 784 ± 190 nM
EC50 ([6]; calcium mobilization, agonist): > 10000 nM

C[C@H](N)C/C=C/c1ccccc1 [S-6, (1S,3E)-1-Methyl-4-phenyl-but-3-enylamine]
5-HT2B EC50, (nM ± SEM) [1]: inactive
EC50 [1]: > 10000 nM
potency at releasing DA compared to NE [2]: almost equal
EC50 [2]: 206 nM
potency for 5-HT release compared to NE release [3]: 3.5 fold
potency for releasing 5-HT relative to DA (SERT/DAT selectivity) [3]: 5 fold
EC50 [3]: 40 nM
5-HT2A EC50, (nM ± SEM) ([4]; calcium mobilization, agonist, HEK293): inactive
EC50 [4, 7]: > 10000 nM
EC50 [5]: 138 nM
5-HT2C EC50, (nM ± SEM) ([6]; calcium mobilization, agonist): inactive
EC50 ([6]; calcium mobilization, agonist): > 10000 nM
